Like-named read-outs stand apart in the source and are kept apart here.

The values that follow come from patent publication US20230077362A1 (CORTEVA AGRISCIENCE LLC, priority 2019, published 2023).

The test system of experiment [1] is Beet Armyworm (Spodoptera exigua) ("BAW"), second instar larvae. Kind of experiment: Bioassay on beet armyworm (BAW), 128-well diet tray assay. To be noted: for pest or weed control at 50 µg/cm2: Spodoptera exigua; for BAW rating: Table ABC, species BAW, C = not tested, D = no activity noticed. The class given is in vivo. The gist of the method:
(§1)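 Mortality (%) is scored well by well after five to seven days at 25° C. on a 14:10 light:dark regime. The value given is the mean of eight wells.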

The test system of experiment [2] is Cabbage Looper (Trichoplusia ni) ("CL"), second instar larvae. Kind of experiment: Bioassay on cabbage looper (CL), 128-well diet tray assay. Type of experiment: in vivo. To be noted: for pest or weed control at 50 µg/cm2: Trichoplusia ni; for CL rating: Table ABC, species CL, C = not tested, D = no activity noticed. The essentials: as §1
Setting [3] is: read-out: BAW (Biological Results, rating).
The mark [4] stands for this setting: read-out: CL (Biological Results, rating).

With `COCOc1cc(-c2ncn(-c3ccc(OC(F)(F)F)cc3)n2)ccc1NC(=O)/N=C1\SCC(=O)N1c1cc(C)ccc1OCC(F)(F)F` [Compound J171, (Z)-1-(2-(Methoxymethoxy)-4-(1-(4-(trifluoromethoxy)phenyl)-1H-1,2,4-triazol-3-yl)phenyl)-3-(3-(5-methyl-2-(2,2,2-trifluoroethoxy)phenyl)-4-oxothiazolidin-2-ylidene)urea], the pest or weed control at 50 µg/cm2 in experiment [1] (setting [3]) and in experiment [2] (setting [4]) was 50 to 100% throughout.
In the case of `CCCc1ccc(OC)cc1N1C(=O)CS/C1=N\C(=O)Nc1ccc(-c2ncn(-c3ccc(OC(F)(F)F)cc3)n2)cc1F` [Compound J43, (Z)-1-(2-Fluoro-4-(1-(4-(trifluoromethoxy)phenyl)-1H-1,2,4-triazol-3-yl)phenyl)-3-(3-(5-methoxy-2-propylphenyl)-4-oxothiazolidin-2-ylidene)urea], the pest or weed control at 50 µg/cm2 in experiment [1] (setting [3]) and in experiment [2] (setting [4]) was 50 to 100% each time.
On to `CNc1ccc(C(C)C)c(N2C(=O)CS/C2=N\C(=O)Nc2ccc(-c3ncn(-c4ccc(OC(F)(F)F)cc4)n3)cc2F)c1` [Compound J85, (Z)-1-(2-Fluoro-4-(1-(4-(trifluoromethoxy)phenyl)-1H-1,2,4-triazol-3-yl)phenyl)-3-(3-(2-isopropyl-5-(methylamino)phenyl)-4-oxothiazolidin-2-ylidene)urea], for which the pest or weed control at 50 µg/cm2 in experiment [1] (setting [3]) and in experiment [2] (setting [4]) was 50 to 100% each time.
For `CN(C)c1ccc(C(F)(F)F)c(N2C(=O)CS/C2=N\C(=O)Nc2ccc(-c3cn(-c4ccc(C(F)(F)F)cn4)cn3)cc2F)c1` [Compound J483, (Z)-1-(3-(5-(Dimethylamino)-2-(trifluoromethyl)phenyl)-4-oxothiazolidin-2-ylidene)-3-(2-fluoro-4-(1-(5-(trifluoromethyl)pyridin-2-yl)-1H-imidazol-4-yl)phenyl)urea], the pest or weed control at 50 µg/cm2 in experiment [1] (read-out: BAW rating) and in experiment [2] (read-out: CL rating) was 50 to 100% throughout.
In the case of `COc1ccc(C(C)C)c(N2C(=O)CS/C2=N\C(=O)Nc2ccc(-c3ncn(-c4ccc(OC(F)(F)F)cn4)n3)cc2F)c1` [Compound J239, (Z)-1-(2-Fluoro-4-(1-(5-(trifluoromethoxy)pyridin-2-yl)-1H-1,2,4-triazol-3-yl)phenyl)-3-(3-(2-isopropyl-5-methoxyphenyl)-4-oxothiazolidin-2-ylidene)urea], the pest or weed control at 50 µg/cm2 in experiment [1] (setting [3]) and in experiment [2] (setting [4]) was 50 to 100% in each case.
Consider `COC(C)c1ccc(C)cc1N1C(=O)CS/C1=N\C(=O)Nc1ccc(-c2ncn(-c3ccc(C(F)(F)F)cn3)n2)cc1C(F)(F)F` (stereo not drawn) [Compound J303, (Z)-1-(3-(2-(1-Methoxyethyl)-5-methylphenyl)-4-oxothiazolidin-2-ylidene)-3-(2-(trifluoromethyl)-4-(1-(5-(trifluoromethyl)pyridin-2-yl)-1H-1,2,4-triazol-3-yl)phenyl)urea], for which the pest or weed control at 50 µg/cm2 in experiment [1] (setting [3]) and in experiment [2] (setting [4]) was 50 to 100% each time.
In the case of “(Z)-1-(2-Fluoro-4-(1-(4-(trifluoromethoxy)phenyl)-1H-1,2,4-triazol-3-yl)phenyl)-3-(3-(5-methyl-2-((thiophen-3-ylmethoxy)methyl)phenyl)-4-oxothiazolidin-2-ylidene)urea [Compound J623]”, the BAW rating result in experiment [1] is “A (50-100)”. Also, the CL rating entry in experiment [2] is listed as “A (50-100)”.
For the compound `COC(C)c1ccc(C)cc1N1C(=O)CS/C1=N\C(=O)Nc1ccc(-c2cn(-c3ccc(S(F)(F)(F)(F)F)cc3)cn2)cc1C` (stereo not drawn) [Compound J614, (Z)-1-(3-(2-(1-Methoxyethyl)-5-methylphenyl)-4-oxothiazolidin-2-ylidene)-3-(2-methyl-4-(1-(4-(pentafluoro-λ^6-sulfaneyl)phenyl)-1H-imidazol-4-yl)phenyl)urea], the pest or weed control at 50 µg/cm2 in experiment [1] (read-out: BAW rating) and in experiment [2] (read-out: CL rating) was 50 to 100% throughout.
For the compound `Cc1cc(-c2ncn(-c3ccc(S(F)(F)(F)(F)F)cc3)n2)ccc1NC(=O)/N=C1\SCC(=O)N1c1cccc(C)c1COCC(F)(F)F` [Compound J578], the BAW rating entry in experiment [1] was “A (50-100)”. The CL rating entry in experiment [2] is listed as “A (50-100)”.
